We go through 44 molecules from patent US20210214364A1, “sGC STIMULATORS” (Cyclerion Therapeutics, Inc., priority 2013, published 2021).

For orientation: pEC50 means the EC50 on a negative log10 scale, so that one unit is a factor of ten.

The structures appear in SMILES notation. pEC50: −log10 of the molar value. Some results are limits rather than exact numbers.

In this test the target is T1, soluble guanylate cyclase (sGC) endogenously expressed in HEK293 cells (Homo sapiens, UniProt Q02108+Q02153).
T1 construct: endogenously expressing soluble guanylate cyclase (sGC); endogenous in cells; host or cells: HEK293
T1 sequence (Q02153 1-619): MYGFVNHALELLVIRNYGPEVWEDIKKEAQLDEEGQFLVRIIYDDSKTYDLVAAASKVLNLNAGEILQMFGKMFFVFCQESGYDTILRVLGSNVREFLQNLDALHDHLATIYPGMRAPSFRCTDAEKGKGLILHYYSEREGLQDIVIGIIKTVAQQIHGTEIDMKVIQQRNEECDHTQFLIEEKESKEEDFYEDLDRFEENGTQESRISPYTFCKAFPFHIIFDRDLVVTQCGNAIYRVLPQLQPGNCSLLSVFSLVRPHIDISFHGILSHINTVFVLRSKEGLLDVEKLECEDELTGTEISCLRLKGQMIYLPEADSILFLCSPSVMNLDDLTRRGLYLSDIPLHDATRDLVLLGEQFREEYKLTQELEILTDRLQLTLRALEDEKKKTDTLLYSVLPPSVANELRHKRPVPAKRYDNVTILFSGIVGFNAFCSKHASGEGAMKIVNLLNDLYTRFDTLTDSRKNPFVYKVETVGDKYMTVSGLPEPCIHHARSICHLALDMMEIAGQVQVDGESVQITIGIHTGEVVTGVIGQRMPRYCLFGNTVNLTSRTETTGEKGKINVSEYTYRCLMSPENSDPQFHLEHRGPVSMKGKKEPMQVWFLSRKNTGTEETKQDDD
T1 sequence (Q02108 1-690): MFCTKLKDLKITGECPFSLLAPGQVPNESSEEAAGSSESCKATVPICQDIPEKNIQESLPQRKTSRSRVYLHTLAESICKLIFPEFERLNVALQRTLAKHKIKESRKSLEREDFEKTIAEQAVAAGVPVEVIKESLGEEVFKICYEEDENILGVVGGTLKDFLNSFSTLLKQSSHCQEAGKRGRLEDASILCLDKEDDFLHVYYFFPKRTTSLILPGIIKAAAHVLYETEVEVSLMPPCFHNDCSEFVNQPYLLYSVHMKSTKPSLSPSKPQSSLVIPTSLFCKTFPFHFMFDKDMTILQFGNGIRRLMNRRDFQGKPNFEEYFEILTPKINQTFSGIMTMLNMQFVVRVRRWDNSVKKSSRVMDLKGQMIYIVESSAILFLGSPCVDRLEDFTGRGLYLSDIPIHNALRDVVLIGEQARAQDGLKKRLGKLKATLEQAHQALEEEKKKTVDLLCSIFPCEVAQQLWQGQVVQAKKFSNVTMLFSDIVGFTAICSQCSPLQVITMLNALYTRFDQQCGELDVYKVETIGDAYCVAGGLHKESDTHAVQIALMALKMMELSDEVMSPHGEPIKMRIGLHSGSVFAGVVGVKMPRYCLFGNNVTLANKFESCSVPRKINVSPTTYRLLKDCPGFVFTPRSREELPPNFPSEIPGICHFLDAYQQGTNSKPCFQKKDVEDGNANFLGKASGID
The experiment in a line: sGC-HEK-cGMP assay with LC/MS detection (whole cell). It is filed as cell-based. Conditions: 10 μM DETA-NONOate, 20 min, concentration eliciting 50% of high control response (30 μM Compound Y), read-out: sGC_HEK_LC MS EC50 Abs. Here is the method:
Example 2: Biological Activity Measurement by the sGC-HEK-cGMP Assay, with LC/MS Detection
Human embryonic kidney cells (HEK293), endogenously expressing soluble guanylate cyclase (sGC), were used to evaluate the activity of test compounds. Compounds stimulating the sGC enzyme should cause an increase in the intracellular concentration of cGMP. HEK 293 cells were seeded in Dulbecco's Modification of Eagle's Medium supplemented with fetal bovine serum (10% final) and penicillin (100 U/mL)/streptomycin (100 μg/mL) in a 50 μL volume at a density of 1.5×10^4 cells/well in a poly-D-lysine coated 384 well flat bottom plate. Cells were incubated overnight at 37° C. in a humidified chamber with 5% CO2. Medium was aspirated and cells were washed with 1× Hank's Buffered Saline Salt Solution (50 μL). Cells were then incubated for 15 minutes at 37° C. with 50 μL of a 0.5 mM 3-isobutyl-1-methylxanthine (IBMX) solution. Test article and Diethylenetriamine NONOate (DETA-NONOate) solutions (x […] concentration for test article solution and 10 μM concentration for DETA-NONOate solution; wherein x is one of the following concentrations);
were then added to the assay mixture and the resulting mixture incubated at 37° C. for 20 minutes. After the 20 minute incubation, the assay mixture was aspirated and 10% acetic acid containing 150 ng/mL+3-cGMP (internal standard for LCMS) (50 μL) was added to the cells. The plate was incubated at 4° C. for 30 minutes in the acetic acid solution to stop the reaction and lyse the cells. The plates were then centrifuged at 1,000 g for 3 minutes at 4° C. and the supernatant transferred to a clean reaction plate for LCMS analysis.
cGMP concentrations were determined from each sample using the LCMS conditions below (Table 2) and calculated standard curve. The standard curve was prepared in 10% acetic acid with 150 ng/mL+3cGMP (isotopically labelled cGMP with a weight 3 units higher than wild type) with the following final concentrations of cGMP in ng/mL: 1, 5, 10, 50, 100, 250, 500, 1000, 2000.
Data were normalized to a high control using the following equation: 100*(Sample−Low Control)/(High Control−Low Control), where the low control is the average of 16 samples treated with 1% DMSO, and the high control is the average of 16 samples treated with 30 μM of Compound Y depicted below. Data were fit using a 4-parameter fit (log(agonist) vs. response variable slope) using GraphPad Prism Software v.5. n=2 for all compounds. The Absolute EC50 was interpolated from the curve fit and is defined as the concentration at which a given compound elicits 50% of the high control response. Compounds failing to elicit a minimum response of 50% are reported as >30 μM. For compounds run in duplicate or n higher than 2, the result herein given is the geometric mean of the several results obtained.
`COc1cc(-c2nc(N)c3c(n2)NC(=O)C3(C)C(N)=O)nn1Cc1ccccc1F` (centres unmarked) [Compound I-2]: the pEC50 is 6.00 to 7.00.

On to `O=c1[nH]c(-c2cc(OC(F)F)n(Cc3ccccc3F)n2)ncc1F` [Compound I-4], for which the pEC50 is no more than 6.00.

Regarding `COc1cc(-c2ncc(F)c(=O)[nH]2)nn1Cc1ccccc1F` [Compound I-5], the pEC50 was no more than 6.00.

In the case of `COc1cc(-c2nccc(N)n2)nn1Cc1ccccc1F` [Compound I-6], the negative-log EC50 (pEC50) is no more than 6.00.

Consider `COc1cc(-c2nc(N)c3c(n2)NC(=O)C3(C)C(N)=O)nn1CCC(F)(F)F` (centres unmarked) [Compound I-7], for which the pEC50 was no more than 6.00.

On to `CCOC(=O)C1(C)C(=O)Nc2nc(-c3cc(OC(C)C)n(Cc4ccccc4F)n3)nc(N)c21` (centres unmarked) [Compound I-8], for which the pEC50 was no more than 6.00.

As to `COc1cc(-c2ncc(F)c(NCC(=O)O)n2)nn1Cc1ccccc1F` [Compound I-9], the negative-log EC50 (pEC50) is no more than 6.00.

With `CC1(C(N)=O)C(=O)Nc2nc(-c3nn(Cc4ccccc4F)c(=O)[nH]3)nc(N)c21` (centres unmarked) [Compound I-10], the pEC50 was no more than 6.00.

Take `COc1cc(-c2ncc(F)c(NCC(N)=O)n2)nn1Cc1ccccc1F` [Compound I-11]: the pEC50 was no more than 6.00.

For the molecule `COc1cc(-c2ncc(F)c(N(C)C)n2)nn1Cc1ccccc1F` [Compound I-12], the pEC50 was no more than 6.00.

As for `COc1cc(-c2ncc(F)c(NCCO)n2)nn1Cc1ccccc1F` [Compound I-13], the pEC50 was no more than 6.00.

Regarding `CCOC(=O)C1(C)C(=O)Nc2nc(-c3cc(OC)n(CCC(F)(F)F)n3)nc(N)c21` (centres unmarked) [Compound I-14], the negative-log EC50 (pEC50) was no more than 6.00.

For the molecule `COc1cc(-c2nc3c(c(=O)[nH]2)=C(C)C(=O)N=3)nn1Cc1ccccc1F` [Compound I-15], the pEC50 was no more than 6.00.

`COc1cc(-c2nnc3c(n2)NC(=O)C3(C)C)nn1Cc1ccccc1F` [Compound I-16]: the pEC50 is 6.00 to 7.00.

As for `COc1nc(-c2nc(N)c3c(n2)NC(=O)C3(C)C(N)=O)nn1Cc1ccccc1F` (centres unmarked) [Compound I-17], the pEC50 is no more than 6.00.

As for `Cn1c(-c2nc(N)c3c(n2)NC(=O)C3(C)C(N)=O)nn(Cc2ccccc2F)c1=O` (centres unmarked) [Compound I-18], the pEC50 is no more than 6.00.

Consider `COc1cc(-c2ncc(F)c(NCc3cc(=O)[nH]o3)n2)nn1Cc1ccccc1F` [Compound I-19], for which the pEC50 was no more than 6.00.

As to `COc1cc(-c2ncc(F)c(NCC(O)(C(N)=O)C(F)(F)F)n2)nn1Cc1ccccc1F` (centres unmarked) [Compound I-20], the negative logarithm of the EC50 (pEC50) was 6.00 to 7.00.

With `CCOC(=O)C1(C)C(=O)Nc2nc(-c3nn(Cc4ccccc4F)c(=O)[nH]3)nc(N)c21` (centres unmarked) [Compound I-21], the pEC50 was no more than 6.00.

As to `COc1cc(-c2ncc(F)c(N3CCCC3)n2)nn1Cc1ccccc1F` [Compound I-22], the pEC50 is no more than 6.00.

Turning to `COc1cc(-c2ncc(F)c(N3CCOCC3)n2)nn1Cc1ccccc1F` [Compound I-23], the pEC50 is no more than 6.00.

Turning to `COc1cc(-c2ncc(F)c(N3CCNCC3)n2)nn1Cc1ccccc1F` [Compound I-24], the pEC50 was no more than 6.00.

For the molecule `COc1c(C#N)c(-c2nc(N)c3c(n2)NC(=O)C3(C)C(N)=O)nn1Cc1ccccc1F` (centres unmarked) [Compound I-25], the pEC50 is 6.00 to 7.00.

Turning to `COC(=O)NC1(C)C(=O)Nc2nc(-c3cc(OC)n(Cc4ccccc4F)n3)[nH]c(=O)c21` (centres unmarked) [Compound I-26], the pEC50 was no more than 6.00.

For the molecule `COc1c(C)c(-c2nc(N)c3c(n2)NC(=O)C3(C)C(N)=O)nn1Cc1ccccc1F` (centres unmarked) [Compound I-27], the pEC50 is no more than 6.00.

As to `CCOc1cc(-c2nc(N)c3c(n2)NC(=O)C3(C)C(N)=O)nn1Cc1ccccc1F` (centres unmarked) [Compound I-28], the pEC50 is no more than 6.00.

Turning to `CCOC(=O)C1(C)C(=O)Nc2nc(-c3nn(Cc4ccccc4F)c(=O)n3C)nc(N)c21` (centres unmarked) [Compound I-29], the pEC50 is no more than 6.00.

As for `CCOC(=O)C1(C)C(=O)Nc2nc(-c3nc(OC)n(Cc4ccccc4F)n3)nc(N)c21` (centres unmarked) [Compound I-30], the negative-log EC50 (pEC50) was no more than 6.00.

As for `COc1cc(-c2ncc(F)c(N3CCCCC3)n2)nn1Cc1ccccc1F` [Compound I-31], the pEC50 is no more than 6.00.

`COc1cc(-c2ncc(F)c(NCCCCC(=O)O)n2)nn1Cc1ccccc1F` [Compound I-32]: the pEC50 is 6.00 to 7.00.

For `COc1cc(-c2ncc(F)c(N3CCC(S(N)(=O)=O)CC3)n2)nn1Cc1ccccc1F` [Compound I-33], the pEC50 was no more than 6.00.

For `CC1(C)C(=O)Nc2nc(-c3cc(OC(F)F)n(Cc4cccc(F)c4F)n3)nc(N)c21` [Compound I-34], the pEC50 is 6.00 to 7.00.

As for `CCOC(=O)C1(C)C(=O)Nc2nc(-c3cc(OC)n(Cc4ccccc4F)n3)[nH]c(=O)c21` (centres unmarked) [Compound I-35], the pEC50 was 6.00 to 7.00.

As for `COc1cc(-c2ncc(F)c(N3CC(C)C(C(=O)O)C3)n2)nn1Cc1ccccc1F` (centres unmarked) [Compound I-36], the pEC50 is no more than 6.00.

Regarding `COc1nc(-c2nc(N)c3c(n2)NC(=O)C3(C)C(=O)NC2CC2)nn1Cc1ccccc1F` (centres unmarked) [Compound I-37], the pEC50 was no more than 6.00.

In the case of `Cn1c(-c2nc(N)c3c(n2)NC(=O)C3(C)C(=O)NC2CC2)nn(Cc2ccccc2F)c1=O` (centres unmarked) [Compound I-38], the pEC50 was no more than 6.00.

Regarding `CC1(C(=O)NC2CC2)C(=O)Nc2nc(-c3cc(OC(F)F)n(Cc4cccc(F)c4F)n3)ncc21` (centres unmarked) [Compound I-40], the pEC50 is 6.00 to 7.00.

For `CC1(C(N)=O)C(=O)Nc2nc(-c3cc(OC(F)F)n(CCC(F)(F)C(F)(F)F)n3)nc(N)c21` (centres unmarked) [Compound I-41], the pEC50 is no more than 6.00.

Consider `C[C@H]1CCCN(c2nc(-c3cc(OC(F)F)n(Cc4ccccc4F)n3)ncc2F)[C@H]1C(=O)O` [Compound I-42], for which the pEC50 is 6.00 to 7.00.

Turning to `COc1cc(-c2nc3c(c(=O)[nH]2)C(C)(C(=O)NC2CC2)C(=O)N3)nn1Cc1ccccc1F` (centres unmarked) [Compound I-43], the pEC50 was no more than 6.00.

Consider `CCOC(=O)C1(C)C(=O)Nc2nc(-c3nn(Cc4ccccc4F)c(OC)c3C)nc(N)c21` (centres unmarked) [Compound I-45], for which the pEC50 was 6.00 to 7.00.

`CCOC(=O)C1(C)C(=O)Nc2nc(-c3cc(OCC)n(Cc4ccccc4F)n3)nc(N)c21` (centres unmarked) [Compound I-46]: the pEC50 is 6.00 to 7.00.

Take `COc1cc(-c2ncc(NC(=O)OCc3ccccc3)c(=O)[nH]2)nn1Cc1ccccc1F` [Compound I-47]: the pEC50 is no more than 6.00.

`CC1(C(N)=O)C(=O)Nc2nc(-c3cc(O)n(Cc4ccccc4F)n3)nc(N)c21` (centres unmarked) [Compound I-48]: the pEC50 was no more than 6.00.
